The target in one assay is T1, human Fatty Acid Synthase (Homo sapiens, UniProt P49327).
T1 construct: made in house
T1 sequence (P49327 whole entry): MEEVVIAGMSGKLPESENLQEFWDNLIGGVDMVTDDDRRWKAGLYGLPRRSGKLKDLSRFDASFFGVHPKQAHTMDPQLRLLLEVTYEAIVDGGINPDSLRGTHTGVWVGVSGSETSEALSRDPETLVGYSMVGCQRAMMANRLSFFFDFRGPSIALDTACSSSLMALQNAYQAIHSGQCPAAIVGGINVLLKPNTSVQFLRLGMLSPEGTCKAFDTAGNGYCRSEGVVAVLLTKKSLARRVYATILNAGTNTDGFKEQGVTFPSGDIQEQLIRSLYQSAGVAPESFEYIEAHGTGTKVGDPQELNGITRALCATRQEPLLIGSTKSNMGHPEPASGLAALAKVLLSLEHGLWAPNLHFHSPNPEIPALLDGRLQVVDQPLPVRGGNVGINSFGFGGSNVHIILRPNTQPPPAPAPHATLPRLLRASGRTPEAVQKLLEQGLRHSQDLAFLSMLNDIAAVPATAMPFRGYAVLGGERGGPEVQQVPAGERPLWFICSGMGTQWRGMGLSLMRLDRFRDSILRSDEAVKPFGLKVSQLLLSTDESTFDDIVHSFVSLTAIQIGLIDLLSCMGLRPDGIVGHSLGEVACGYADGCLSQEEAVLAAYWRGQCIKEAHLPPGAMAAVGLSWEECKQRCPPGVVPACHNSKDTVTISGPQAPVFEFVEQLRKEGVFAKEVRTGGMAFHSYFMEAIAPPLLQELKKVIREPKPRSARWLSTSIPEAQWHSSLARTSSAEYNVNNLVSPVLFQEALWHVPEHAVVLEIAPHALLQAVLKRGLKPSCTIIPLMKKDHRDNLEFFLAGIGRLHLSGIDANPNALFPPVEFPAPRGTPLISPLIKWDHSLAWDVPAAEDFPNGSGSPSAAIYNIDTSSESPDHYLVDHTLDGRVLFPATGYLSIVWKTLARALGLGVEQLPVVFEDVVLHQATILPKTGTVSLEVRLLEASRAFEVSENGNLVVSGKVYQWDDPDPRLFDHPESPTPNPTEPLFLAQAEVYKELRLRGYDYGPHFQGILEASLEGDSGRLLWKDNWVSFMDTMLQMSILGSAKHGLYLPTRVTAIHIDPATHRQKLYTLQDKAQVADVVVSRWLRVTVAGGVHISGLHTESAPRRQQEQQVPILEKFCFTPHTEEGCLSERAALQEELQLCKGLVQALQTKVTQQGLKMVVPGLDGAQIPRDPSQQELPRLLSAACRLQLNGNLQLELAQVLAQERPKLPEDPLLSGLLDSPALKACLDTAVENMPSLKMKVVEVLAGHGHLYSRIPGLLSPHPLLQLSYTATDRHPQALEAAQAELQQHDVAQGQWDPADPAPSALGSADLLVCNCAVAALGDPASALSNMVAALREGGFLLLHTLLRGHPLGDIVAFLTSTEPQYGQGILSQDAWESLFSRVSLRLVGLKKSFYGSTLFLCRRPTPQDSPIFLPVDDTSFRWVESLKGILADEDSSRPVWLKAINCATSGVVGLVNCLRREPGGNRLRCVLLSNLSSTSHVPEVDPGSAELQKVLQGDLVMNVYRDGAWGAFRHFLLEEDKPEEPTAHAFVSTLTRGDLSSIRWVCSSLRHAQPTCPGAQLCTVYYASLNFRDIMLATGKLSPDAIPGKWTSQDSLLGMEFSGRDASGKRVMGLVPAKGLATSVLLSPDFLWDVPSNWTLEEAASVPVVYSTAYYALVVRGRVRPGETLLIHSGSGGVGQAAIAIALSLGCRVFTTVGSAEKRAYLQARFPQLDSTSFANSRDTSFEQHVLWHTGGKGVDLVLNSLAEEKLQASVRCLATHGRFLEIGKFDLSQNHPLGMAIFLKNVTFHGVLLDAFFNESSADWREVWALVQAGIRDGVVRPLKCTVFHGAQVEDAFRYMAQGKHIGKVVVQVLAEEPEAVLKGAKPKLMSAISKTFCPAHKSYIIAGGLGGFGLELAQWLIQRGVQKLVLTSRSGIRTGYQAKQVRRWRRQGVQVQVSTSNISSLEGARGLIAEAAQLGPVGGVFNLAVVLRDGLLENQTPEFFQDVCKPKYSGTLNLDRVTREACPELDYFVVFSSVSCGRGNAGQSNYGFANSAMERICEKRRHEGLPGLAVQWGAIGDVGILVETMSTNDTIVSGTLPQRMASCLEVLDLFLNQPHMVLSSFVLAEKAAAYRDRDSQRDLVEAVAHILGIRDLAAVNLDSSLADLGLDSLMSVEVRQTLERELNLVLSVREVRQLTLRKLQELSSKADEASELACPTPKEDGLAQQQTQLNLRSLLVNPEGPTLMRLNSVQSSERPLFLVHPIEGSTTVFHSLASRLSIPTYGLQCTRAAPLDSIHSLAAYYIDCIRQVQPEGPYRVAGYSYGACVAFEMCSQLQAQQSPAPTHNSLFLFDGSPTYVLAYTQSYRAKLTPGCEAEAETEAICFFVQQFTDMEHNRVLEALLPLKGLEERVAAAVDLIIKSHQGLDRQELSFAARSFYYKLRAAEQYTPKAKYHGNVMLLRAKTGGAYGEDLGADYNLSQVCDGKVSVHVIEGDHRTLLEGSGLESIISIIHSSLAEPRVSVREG
As to the kind of experiment: Human FAS enzyme assay (decrease in NADPH fluorescence). It is filed as biochemical. The following applies: % inhibition at a concentration of 100 μmolar. On the procedure:
Human and Rat FAS Enzyme Assay.
Fatty acid synthase is an enzyme complex that harbours seven enzymatic activities catalysing the reductive synthesis of long chain fatty acids from acetyl CoA and malonyl CoA to palmitate. When acetyl CoA and malonyl CoA are forming palmitate NADPH is consumed forming NADP. Since NADPH is fluorescent but not NADP the reaction can be measured by analysing the decrease in fluorescence.
Compounds were added to a black 384 well plate (Matrix) in a volume of 5 μl consisting of 20% DMSO and 80% Tris buffer pH 7.5, at a top concentration of 1 mM. NADPH, 30 μl of 166.6 μM, formulated in assay buffer (0.1M Tris ph7.5, 0.1 mM EDTA, 1 mM glutathione, 0.05% BSA), was then added to all of the wells of the plate. Fatty acid synthase Human or rat enzyme (0.4 μg, produced in house), dissolved in 20 mM Tris/HCl pH 7.5, 5 mM BOG, 1 mM TCEP, 10% glycerol, 1 mM EDTA, 150 mM NaCl, was then added to the plate in a volume of 10 μl. Enzyme was added to all but the last two columns of the plate, to which, 10 μl of assay buffer was added (0.1M Tris ph7.5, 0.1 mM EDTA, 1 mM glutathione, 0.05% BSA) to provide a no enzyme assay control. Following a 15-minute incubation period, at room temperature, the plates were read on an Envision plate reader using 340 nm excitation and 460 nm emission filters. This served as a time zero background read. Substrates (an equal mix of both malonyl and acetyl CoA) were then added to the plates in a total volume of 5 μl. The concentrations of malonyl and acetyl CoA in the mixture were 500 μM and 150 μM respectively. Both were prepared as 10 mM stock solutions in distilled water and were subsequently diluted to working concentrations in assay buffer. Plates were then incubated for a further 60 minutes, at room temperature, before being read again on the Envision reader using the same parameters as previously used. The data was analysed by subtracting the background time zero data from that generated following the final 60 minute incubate and the percent inhibition compared to the maximum and minimum assay controls was determined. Sigmoid curves were fitted using Origin 7.5 Client software and IC50 values were determined.
By inhibition is commonly meant the change of the read-out against control, counted positive when it falls. Consider `Cc1ccc(C(=O)N2CCC(c3ccc(C#N)cc3)CC2)cc1NC(=O)NC1CCCCNC1=O` (centres unmarked) [Example 133, 1-[5-[4-(4-cyanophenyl)piperidine-1-carbonyl]-2-methyl-phenyl]-3-(2-oxoazepan-3-yl)urea], for which the inhibition at 100 µM stood at 81.2%.
On the same count and under the same terms, in the case of `COCCCNC(=O)Nc1cc(C(=O)N2CCC(c3ccc(C#N)cc3)CC2)ccc1C` [Example 154, 1-[5-[4-(4-cyanophenyl)piperidine-1-carbonyl]-2-methyl-phenyl]-3-(3-methoxypropyl)urea] it was 93%; in that of `Cc1ccc(C(=O)N2CCC(c3ccc(C#N)cc3)CC2)cc1NC(=O)NCc1nccs1` [Example 248, 1-[5-[4-(4-cyanophenyl)piperidine-1-carbonyl]-2-methyl-phenyl]-3-(1,3-thiazol-2-ylmethyl)urea], 100%; in that of `CC(=O)N1CCCC(NC(=O)Nc2cc(C(=O)N3CCC(c4ccc(C#N)cc4)CC3)ccc2C)C1` (centres unmarked) [Example 390, 3-(1-acetylpiperidin-3-yl)-1-[5-[4-(4-cyanophenyl)piperidine-1-carbonyl]-2-methylphenyl]urea], 90.6%.
Turning to `Cc1ccc(C(=O)N2CCC(c3ccc(C#N)cc3)CC2)cc1NC(=O)NCC(O)CO` (centres unmarked) [Example 184, 1-[5-[4-(4-cyanophenyl)piperidine-1-carbonyl]-2-methyl-phenyl]-3-(2,3-dihydroxypropyl)urea], the inhibition at 100 µM turned out to be 81.7%.
As for `Cc1ccc(C(=O)N2CCC(c3ccc(C#N)cc3)CC2)cc1NC(=O)NCCNS(=O)(=O)N(C)C` [Example 92, 1-[5-[4-(4-cyanophenyl)piperidine-1-carbonyl]-2-methyl-phenyl]-3-[2-(dimethylsulfamoylamino)ethyl]urea], the inhibition at 100 µM stood at 102%.
With `CC(=O)NCCNC(=O)Nc1cc(C(=O)N2CCC(c3ccc(C#N)cc3)CC2)ccc1C` [Example 55, N-[2-[[5-[4-(4-cyanophenyl)piperidine-1-carbonyl]-2-methyl-phenyl]carbamoylamino]ethyl]acetamide], the inhibition at 100 µM stood at 93.2%.
As to `CC(=O)OCC(=O)NCCNC(=O)Nc1cc(C(=O)N2CCC(c3ccc(C#N)cc3)CC2)ccc1C` [Example 113, 2-[[5-[4-(4-cyanophenyl)piperidine-1-carbonyl]-2-methyl-phenyl]carbamoylamino]ethylcarbamoylmethyl acetate], the inhibition at 100 µM came out at 92.7%.
`Cc1ccc(C(=O)N2CCC(c3ccc(Cl)cc3)CC2)cc1NC(=O)NC(C)C` [Example 359, 1-[5-[4-(4-chlorophenyl)piperidine-1-carbonyl]-2-methyl-phenyl]-3-propan-2-yl-urea]: the inhibition at 100 µM was found to be 92.1%.
For `C[S+]([O-])c1ccc(C(=O)N2CCC(c3ccc(C#N)cc3)CC2)cc1NC(=O)NCc1ccccc1` (centres unmarked) [Example 387, 3-benzyl-1-[5-[4-(4-cyanophenyl)piperidine-1-carbonyl]-2-methylsulfinylphenyl]urea], the inhibition at 100 µM turned out to be 72.9%.
In the case of `CCS(=O)(=O)N1CC[C@H](NC(=O)Nc2cc(C(=O)N3CCC(c4ccc(C#N)cc4)CC3)ccc2C)C1` [Example 222, 3-[5-[4-(4-cyanophenyl)piperidine-1-carbonyl]-2-methyl-phenyl]-1-[(3S)-1-ethylsulfonylpyrrolidin-3-yl]urea], the inhibition at 100 µM was 90.7%.
Still for that read-out and setting: for `Cc1ccc(C(=O)N2CCC(c3ccc(C#N)cc3)CC2)cc1NC(=O)NC1CN(C(=O)C(C)C)C1` [Example 301, 1-[5-[4-(4-cyanophenyl)piperidine-1-carbonyl]-2-methyl-phenyl]-3-[1-(2-methylpropanoyl)azetidin-3-yl]urea] the value was 96.6%; for `Cc1ccc(C(=O)N2CCC(c3ccc(C#N)cc3)CC2)cc1NC(=O)N[C@H]1CCCC[C@H]1N` (relative stereo) [Example 304, 3-[(cis)-2-aminocyclohexyl]-1-[5-[4-(4-cyanophenyl)piperidine-1-carbonyl]-2-methyl-phenyl]urea], 92.8%.
Same read-out and setting: for `CCC(=O)N1CCCC(NC(=O)Nc2cc(C(=O)N3CCC(c4ccc(C#N)cc4)CC3)ccc2C)C1` (centres unmarked) [Example 295, 3-[5-[4-(4-cyanophenyl)piperidine-1-carbonyl]-2-methyl-phenyl]-1-(1-propanoyl-3-piperidyl)urea] the value was 97.2%; for `Cc1ccc(C(=O)N2CCC(c3ccc(C#N)cc3)CC2)cc1NC(=O)NCc1cc(C)n(C)n1` [Example 257, 1-[5-[4-(4-cyanophenyl)piperidine-1-carbonyl]-2-methyl-phenyl]-3-[(1,5-dimethylpyrazol-3-yl)methyl]urea], 86.2%.
For `Cc1ccc(C(=O)N2CCC(c3ccc(C#N)cc3)CC2)cc1NC(=O)NCC(C)(C)CO` [Example 188, 1-[5-[4-(4-cyanophenyl)piperidine-1-carbonyl]-2-methyl-phenyl]-3-(3-hydroxy-2,2-dimethyl-propyl)urea], the inhibition at 100 µM came to 89%.
Take `Cc1ccc(C(=O)N2CCC(c3ccc(C#N)cc3)CC2)cc1NC(=O)N[C@H]1CC[C@H](N)C1` [Example 318, 3-[(1S,3S)-3-aminocyclopentyl]-1-[5-[4-(4-cyanophenyl)piperidine-1-carbonyl]-2-methyl-phenyl]urea]: the inhibition at 100 µM worked out at 93.9%.
As to `Cc1cc(C)c(C(=O)N2CCC(c3ccc(C#N)cc3)CC2)cc1NC(=O)NCc1ccccc1` [Example 12, 3-benzyl-1-[5-[4-(4-cyanophenyl)piperidine-1-carbonyl]-2,4-dimethyl-phenyl]urea], the inhibition at 100 µM is 84.6%.
Same read-out and setting: for `COc1cc(CNC(=O)Nc2cc(C(=O)N3CCC(c4ccc(C#N)cc4)CC3)ccc2C)cc(OC)c1OC` [Example 44, 1-[5-[4-(4-cyanophenyl)piperidine-1-carbonyl]-2-methyl-phenyl]-3-[(3,4,5-trimethoxyphenyl)methyl]urea] the value was 87.9%; for `Cc1ccc(C(=O)N2CCC(c3ccc(C#N)cc3)CC2)cc1NC(=O)N[C@H]1CCN(C(=O)OC(C)(C)C)C1` [Example 210, tert-butyl (3S)-3-[[5-[4-(4-cyanophenyl)piperidine-1-carbonyl]-2-methyl-phenyl]carbamoylamino]pyrrolidine-1-carboxylate], 97.4%.
Same read-out and setting: for `Cc1ccc(C(=O)N2CCC(c3ccc(C#N)cc3)CC2)cc1NC(=O)NCCNS(C)(=O)=O` [Example 109, 1-[5-[4-(4-cyanophenyl)piperidine-1-carbonyl]-2-methyl-phenyl]-3-(2-methanesulfonamidoethyl)urea] the value was 98.3%.
Regarding `Cc1ccc(C(=O)N2CCC(c3ccc(C#N)cc3)CC2)cc1NC(=O)NC1CCC(C(=O)O)CC1` (centres unmarked) [Example 406, 4-[[5-[4-(4-cyanophenyl)piperidine-1-carbonyl]-2-methylphenyl]carbamoylamino]cyclohexane-1-carboxylic acid], the inhibition at 100 µM was 93.4%.
As for `Cc1ccc(C(=O)N2CCC(c3ccc(C#N)cc3)CC2)cc1NC(=O)NC1CCN(C)CC1` [Example 148, 1-[5-[4-(4-cyanophenyl)piperidine-1-carbonyl]-2-methyl-phenyl]-3-(1-methyl-4-piperidyl)urea], the inhibition at 100 µM was 79.5%.
Take `CCS(=O)(=O)NCCN(C)C(=O)Nc1cc(C(=O)N2CCC(c3ccc(C#N)cc3)CC2)ccc1C` [Example 402, 3-[5-[4-(4-cyanophenyl)piperidine-1-carbonyl]-2-methylphenyl]-1-[2-(ethylsulfonylamino)ethyl]-1-methylurea]: the inhibition at 100 µM stood at 64.6%.
The same measure, in the same setting: in the case of `Cc1ccc(C(=O)N2CCC(c3ccc(C#N)cc3)CC2)cc1NC(=O)NC(C)C(C)C` (centres unmarked) [Example 229, 1-[5-[4-(4-cyanophenyl)piperidine-1-carbonyl]-2-methyl-phenyl]-3-(3-methylbutan-2-yl)urea] it was 88.7%; in that of `Cc1ccc(C(=O)N2CCC(c3ccc(C#N)cc3)CC2)cc1NC(=O)NCCCN1CCOCC1` [Example 146, 1-[5-[4-(4-cyanophenyl)piperidine-1-carbonyl]-2-methyl-phenyl]-3-(3-morpholin-4-ylpropyl)urea], 89.7%; in that of `Cc1ccc(C(=O)N2CCC(c3ccc(C#N)cc3)CC2)cc1NC(=O)NC1CCCNC1` (centres unmarked) [Example 286, 1-[5-[4-(4-cyanophenyl)piperidine-1-carbonyl]-2-methyl-phenyl]-3-(3-piperidyl)urea], 99.6%.
In the case of `Cc1ccc(C(=O)N2CCC(c3ccc(C#N)cc3)CC2)cc1NC(=O)NCc1cccnc1` [Example 35, 1-[5-[4-(4-cyanophenyl)piperidine-1-carbonyl]-2-methyl-phenyl]-3-(pyridin-3-ylmethyl)urea], the inhibition at 100 µM was determined as 91.6%.

The same assay, now with this note: FAS enzyme assay, IC50 from fitted sigmoid curves.
For `Cc1ccc(C(=O)N2CCC(c3ccc(C#N)cc3)CC2)cc1NC(=O)N(C)C` [3-[5-[4-(4-cyanophenyl)piperidine-1-carbonyl]-2-methylphenyl]-1,1-dimethylurea], the “IC50, inhibition of human Fatty Acid Synthase” value is “do not have IC50s in the range of about 0.001 μM to about 30 μM”.
